This note sets out measurements from publication PMC5218480 (PLoS ONE, 2017).

The assay has as its system MV-4-11 cells. As to the kind of experiment: Gene expression microarray analysis (Affymetrix PrimeView) and GSEA. In kind it is cell-based, human. Further details: RFU PODN (11730768_x_at) / Fold change /veh PODN (11730768_x_at) / RFU LINC00158 (11744669_a_at) / Fold change /veh LINC00158 (11744669_a_at) / RFU DUSP10 (11751237_a_at) / Fold change /veh DUSP10 (11751237_a_at) / RFU ID3 (11757404_x_at) / Fold change /veh ID3 (11757404_x_at) / RFU PLEKHG5 (11737974_s_at) / Fold change /veh PLEKHG5 (11737974_s_at) / RFU LRRC4B (11730491_at) / Fold change /veh LRRC4B (11730491_at) / RFU GIMAP4 (11747438_a_at) / Fold change /veh GIMAP4 (11747438_a_at) / RFU KRT8 (11758183_x_at) / Fold change /veh KRT8 (11758183_x_at) / RFU CNN1 (11734310_a_at) / Fold change /veh CNN1 (11734310_a_at) / RFU VPS37D (11726825_at) / Fold change /veh VPS37D (11726825_at) / RFU C10orf10 (11716522_x_at) / Fold change /veh C10orf10 (11716522_x_at) / RFU KIR2DL2 /// KIR2DL4 /// KIR2DL5A /// KIR2DL5B /// KIR2DS1 /// KIR2DS2 /// KIR2DS3 /// KIR2DS4 /// KIR3DL3 /// KIR3DL3 /// KIR3DS1 (11738374_at) / Fold change /veh KIR2DL2 /// KIR2DL4 /// KIR2DL5A /// KIR2DL5B /// KIR2DS1 /// KIR2DS2 /// KIR2DS3 /// KIR2DS4 /// KIR3DL3 /// KIR3DL3 /// KIR3DS1 (11738374_at) / RFU C1QL1 (11718748_at) / Fold change /veh C1QL1 (11718748_at) / RFU TMPRSS4 (11747572_a_at) / Fold change /veh TMPRSS4 (11747572_a_at) / RFU HAMP (11756126_x_at) / Fold change /veh HAMP (11756126_x_at) / RFU RNFT2 (11725882_a_at) / Fold change /veh RNFT2 (11725882_a_at) / RFU NR4A2 (11747474_a_at) / Fold change /veh NR4A2 (11747474_a_at) / RFU ABCC12 (11746883_a_at) / Fold change /veh ABCC12 (11746883_a_at) / RFU TMEM136 (11760407_x_at) / Fold change /veh TMEM136 (11760407_x_at) / RFU CLDN22 /// WWC2 (11732394_at) / Fold change /veh CLDN22 /// WWC2 (11732394_at) / RFU HLA-DPB1 (11760878_x_at) / Fold change /veh HLA-DPB1 (11760878_x_at) / RFU SPINT1 (11716480_a_at) / Fold change /veh SPINT1 (11716480_a_at) / RFU GAP43 (11754022_s_at) / Fold change /veh GAP43 (11754022_s_at) / RFU A4GNT (11735810_at) / Fold change /veh A4GNT (11735810_at) / RFU PRB3 (11715151_x_at) / Fold change /veh PRB3 (11715151_x_at) / RFU TUBB4B (11761932_at) / Fold change /veh TUBB4B (11761932_at) / RFU CAPN14 (11732068_a_at) / Fold change /veh CAPN14 (11732068_a_at) / RFU TMCC2 (11721928_a_at) / Fold change /veh TMCC2 (11721928_a_at) / RFU IRGQ (11745062_a_at) / Fold change /veh IRGQ (11745062_a_at) / RFU FAM174B (11720279_a_at) / Fold change /veh FAM174B (11720279_a_at) / RFU TMPRSS4 (11748680_a_at) / Fold change /veh TMPRSS4 (11748680_a_at) / RFU FAM212B (11763350_a_at) / Fold change /veh FAM212B (11763350_a_at) / RFU PLEKHG5 (11743358_a_at) / Fold change /veh PLEKHG5 (11743358_a_at) / RFU ZSCAN30 (11745921_a_at) / Fold change /veh ZSCAN30 (11745921_a_at) / RFU CMKLR1 (11741424_a_at) / Fold change /veh CMKLR1 (11741424_a_at) / RFU LOC101060620 /// MAPK8IP1 (11723275_at) / Fold change /veh LOC101060620 /// MAPK8IP1 (11723275_at) / RFU SPTSSB (11747773_x_at) / Fold change /veh SPTSSB (11747773_x_at) / RFU PRSS12 (11739890_at) / Fold change /veh PRSS12 (11739890_at) / RFU BIN1 (11741810_x_at) / Fold change /veh BIN1 (11741810_x_at) / RFU WNT11 (11732464_a_at) / Fold change /veh WNT11 (11732464_a_at) / RFU C10orf10 (11716521_a_at) / Fold change /veh C10orf10 (11716521_a_at) / RFU C5orf56 (11738089_at) / Fold change /veh C5orf56 (11738089_at) / RFU CYB561 (11721691_x_at) / Fold change /veh CYB561 (11721691_x_at) / RFU ANKRD19P (11752326_a_at) / Fold change /veh ANKRD19P (11752326_a_at) / RFU OR2T12 /// OR2T33 /// OR2T8 (11738714_s_at) / Fold change /veh OR2T12 /// OR2T33 /// OR2T8 (11738714_s_at) / RFU VCAN (11748164_a_at) / Fold change /veh VCAN (11748164_a_at) / RFU JSRP1 (11732532_at) / Fold change /veh JSRP1 (11732532_at) / RFU KRTAP10-11 (11738290_x_at) / Fold change /veh KRTAP10-11 (11738290_x_at) / RFU MYO3A (11730013_a_at) / Fold change /veh MYO3A (11730013_a_at) / RFU EBF3 (11725865_a_at) / Fold change /veh EBF3 (11725865_a_at) / RFU CAMK2N1 (11719241_x_at) / Fold change /veh CAMK2N1 (11719241_x_at) / RFU C5orf56 (11738088_a_at) / Fold change /veh C5orf56 (11738088_a_at) / RFU OLFML3 (11715873_a_at) / Fold change /veh OLFML3 (11715873_a_at) / RFU LOC100653217 /// NTM (11731650_a_at) / Fold change /veh LOC100653217 /// NTM (11731650_a_at) / RFU MAPK11 (11762145_a_at) / Fold change /veh MAPK11 (11762145_a_at) / RFU FIZ1 (11724087_x_at) / Fold change /veh FIZ1 (11724087_x_at) / RFU OASL (11726364_x_at) / Fold change /veh OASL (11726364_x_at) / RFU SOX15 (11748057_x_at) / Fold change /veh SOX15 (11748057_x_at) / RFU CD79A (11719716_a_at) / Fold change /veh CD79A (11719716_a_at) / RFU HIST1H1D (11736915_at) / Fold change /veh HIST1H1D (11736915_at) / RFU CASKIN2 (11723855_a_at) / Fold change /veh CASKIN2 (11723855_a_at) / RFU LOC730098 (11760151_x_at) / Fold change /veh LOC730098 (11760151_x_at) / RFU OR4N2 (11742367_at) / Fold change /veh OR4N2 (11742367_at) / RFU PRRT2 (11749266_a_at) / Fold change /veh PRRT2 (11749266_a_at) / RFU SNX32 (11753110_a_at) / Fold change /veh SNX32 (11753110_a_at) / RFU CDHR5 (11726645_a_at) / Fold change /veh CDHR5 (11726645_a_at) / RFU RCAN1 (11760418_a_at) / Fold change /veh RCAN1 (11760418_a_at) / RFU FAM167A (11723789_a_at) / Fold change /veh FAM167A (11723789_a_at) / RFU FAM26E (11764081_at) / Fold change /veh FAM26E (11764081_at) / RFU ISYNA1 (11749810_s_at) / Fold change /veh ISYNA1 (11749810_s_at) / RFU ACY1 (11761880_at) / Fold change /veh ACY1 (11761880_at) / RFU 11764098_at / Fold change /veh 11764098_at / RFU SAMD14 (11745864_x_at) / Fold change /veh SAMD14 (11745864_x_at) / RFU NPB (11741838_a_at) / Fold change /veh NPB (11741838_a_at) / RFU TMPRSS6 (11731388_a_at) / Fold change /veh TMPRSS6 (11731388_a_at) / RFU KRTAP10-2 (11738614_at) / Fold change /veh KRTAP10-2 (11738614_at) / RFU ARHGAP8 /// PRR5-ARHGAP8 (11727945_x_at) / Fold change /veh ARHGAP8 /// PRR5-ARHGAP8 (11727945_x_at) / RFU KRTAP5-7 /// NADSYN1 (11734609_at) / Fold change /veh KRTAP5-7 /// NADSYN1 (11734609_at) / RFU RASL12 (11751679_a_at) / Fold change /veh RASL12 (11751679_a_at) / RFU CDKN2B (11736163_a_at) / Fold change /veh CDKN2B (11736163_a_at) / RFU PRF1 (11729649_at) / Fold change /veh PRF1 (11729649_at) / RFU, ZNF638 /// ZNF638-IT1 / Fold change vs veh, ZNF638 /// ZNF638-IT1 / RFU, PANK3 / Fold change vs veh, PANK3 / RFU, SH3YL1 / Fold change vs veh, SH3YL1 / RFU, ZEB2 / Fold change vs veh, ZEB2 / RFU, NRIP1 / Fold change vs veh, NRIP1 / RFU, PTTG1IP / Fold change vs veh, PTTG1IP / RFU, CAPN2 / Fold change vs veh, CAPN2 / RFU, MED14 / Fold change vs veh, MED14 / RFU, SNORA58 / Fold change vs veh, SNORA58 / RFU, C1orf63 / Fold change vs veh, C1orf63 / RFU, LRRFIP1 / Fold change vs veh, LRRFIP1 / RFU, NDUFAF7 / Fold change vs veh, NDUFAF7 / RFU, SLC12A2 / Fold change vs veh, SLC12A2 / RFU, IBTK / Fold change vs veh, IBTK / RFU, ESF1 / Fold change vs veh, ESF1 / Fold change vs veh, TMEM50B / RFU, TAOK1 / Fold change vs veh, TAOK1 / RFU, ACBD3 / Fold change vs veh, ACBD3 / RFU, TMA16 / Fold change vs veh, TMA16 / RFU, RWDD3 / Fold change vs veh, RWDD3 / RFU, BCAT1 / Fold change vs veh, BCAT1 / RFU, EDEM3 / Fold change vs veh, EDEM3 / RFU, TMEM33 / Fold change vs veh, TMEM33 / RFU, WDR75 / Fold change vs veh, WDR75 / RFU, AHCTF1 / Fold change vs veh, AHCTF1 / RFU, TFRC / Fold change vs veh, TFRC / RFU, ZDHHC17 / Fold change vs veh, ZDHHC17 / RFU, NOM1 / Fold change vs veh, NOM1 / RFU, ARL8B / Fold change vs veh, ARL8B / RFU, ZBTB11 / Fold change vs veh, ZBTB11 / RFU, TAMM41 / Fold change vs veh, TAMM41 / RFU, KIAA1704 /// LOC100996395 / Fold change vs veh, KIAA1704 /// LOC100996395 / RFU, ING1 / Fold change vs veh, ING1 / RFU, TRMT61B / Fold change vs veh, TRMT61B / RFU, FUBP3 / Fold change vs veh, FUBP3 / RFU, TP53 / Fold change vs veh, TP53 / RFU, TNKS2 / Fold change vs veh, TNKS2 / RFU, ZFP14 / Fold change vs veh, ZFP14 / RFU, ACTR2 / Fold change vs veh, ACTR2 / RFU, PPP3R1 / Fold change vs veh, PPP3R1 / RFU, PIK3R1 / Fold change vs veh, PIK3R1 / RFU, HNRNPA1 / Fold change vs veh, HNRNPA1 / RFU, RNF170 / Fold change vs veh, RNF170 / RFU, ZNF28 / Fold change vs veh, ZNF28 / RFU, RNGTT / Fold change vs veh, RNGTT / RFU, OGT / Fold change vs veh, OGT / RFU, BRD1 / Fold change vs veh, BRD1 / RFU, MARS / Fold change vs veh, MARS / RFU, ZNF655 / Fold change vs veh, ZNF655 / RFU, FAHD1 / Fold change vs veh, FAHD1 / RFU, BDP1 / Fold change vs veh, BDP1 / RFU, LRRCC1 / Fold change vs veh, LRRCC1 / RFU, ARID1A / Fold change vs veh, ARID1A / RFU, ZNF146 / Fold change vs veh, ZNF146 / RFU, ZNF330 / Fold change vs veh, ZNF330 / RFU, GPN3 / Fold change vs veh, GPN3 / RFU, C9orf123 / Fold change vs veh, C9orf123 / RFU, N4BP2L2 / Fold change vs veh, N4BP2L2 / RFU, ARFIP1 / Fold change vs veh, ARFIP1 / RFU, FAM179B / Fold change vs veh, FAM179B / RFU, BCL10 / Fold change vs veh, BCL10 / RFU, UHRF1BP1L / Fold change vs veh, UHRF1BP1L / RFU, BET1 / Fold change vs veh, BET1 / RFU, CNOT2 / Fold change vs veh, CNOT2 / RFU, ZNF268 / Fold change vs veh, ZNF268 / Fold change vs veh, ZNF507 / RFU, DGCR2 / Fold change vs veh, DGCR2 / RFU, WDSUB1 / Fold change vs veh, WDSUB1 / Fold change vs veh, HSP90B1 /// MIR3652 / RFU, ADSS / Fold change vs veh, ADSS / RFU, GK / Fold change vs veh, GK / RFU, ZNF148 / Fold change vs veh, ZNF148 / RFU, TAF9 / Fold change vs veh, TAF9 / RFU, SLC1A5 / Fold change vs veh, SLC1A5 / RFU, SLMO2 / Fold change vs veh, SLMO2 / RFU, ABCC4 / Fold change vs veh, ABCC4 / RFU, LOC101060439 /// RAP1B / Fold change vs veh, LOC101060439 /// RAP1B / RFU, RFX7 / Fold change vs veh, RFX7 / RFU, GTPBP10 / Fold change vs veh, GTPBP10 / RFU, CNEP1R1 / Fold change vs veh, CNEP1R1 / RFU, BIVM-ERCC5 /// ERCC5 / Fold change vs veh, BIVM-ERCC5 /// ERCC5 / RFU, ILF3 / Fold change vs veh, ILF3 / RFU 11762660_at / Fold change /veh 11762660_at / RFU VCAN (11757783_s_at) / Fold change /veh VCAN (11757783_s_at) / RFU DDX43 (11728927_at) / Fold change /veh DDX43 (11728927_at) / RFU KRT8 (11758188_x_at) / Fold change /veh KRT8 (11758188_x_at) / RFU NKD1 (11759106_at) / Fold change /veh NKD1 (11759106_at) / RFU SRD5A1 (11742802_a_at) / Fold change /veh SRD5A1 (11742802_a_at) / RFU TPSAB1 /// TPSB2 (11721975_s_at) / Fold change /veh TPSAB1 /// TPSB2 (11721975_s_at) / RFU GSTM3 (11746129_a_at) / Fold change /veh GSTM3 (11746129_a_at) / RFU IL23R (11737362_x_at) / Fold change /veh IL23R (11737362_x_at) / RFU TMEM51 (11727254_a_at) / Fold change /veh TMEM51 (11727254_a_at) / RFU PIWIL2 (11732686_x_at) / Fold change /veh PIWIL2 (11732686_x_at) / RFU ORM1 (11744905_x_at) / Fold change /veh ORM1 (11744905_x_at) / RFU CCDC152 (11743942_at) / Fold change /veh CCDC152 (11743942_at) / RFU ECM1 (11717891_a_at) / Fold change /veh ECM1 (11717891_a_at) / RFU IL23R (11748794_a_at) / Fold change /veh IL23R (11748794_a_at) / RFU TNFAIP8L3 (11732012_x_at) / Fold change /veh TNFAIP8L3 (11732012_x_at) / RFU MBOAT4 (11741988_at) / Fold change /veh MBOAT4 (11741988_at) / RFU 11764193_at / Fold change /veh 11764193_at / RFU TMEM53 (11763286_at) / Fold change /veh TMEM53 (11763286_at) / RFU MAGEB2 (11727129_at) / Fold change /veh MAGEB2 (11727129_at) / RFU TMEM200A (11744735_a_at) / Fold change /veh TMEM200A (11744735_a_at) / RFU CCDC152 (11751479_a_at) / Fold change /veh CCDC152 (11751479_a_at) / RFU FAM211A (11726209_a_at) / Fold change /veh FAM211A (11726209_a_at) / RFU RGS16 (11746705_a_at) / Fold change /veh RGS16 (11746705_a_at) / RFU VCAN (11755009_s_at) / Fold change /veh VCAN (11755009_s_at) / RFU RHOB (11743442_s_at) / Fold change /veh RHOB (11743442_s_at) / RFU RGS16 (11720943_a_at) / Fold change /veh RGS16 (11720943_a_at) / RFU RGS16 (11720944_at) / Fold change /veh RGS16 (11720944_at) / RFU, VPS4B / Fold change vs veh, VPS4B / RFU, CREB1 / Fold change vs veh, CREB1 / RFU, DNAJC13 / Fold change vs veh, DNAJC13 / RFU, GNAQ / Fold change vs veh, GNAQ / RFU, CDK5R1 / Fold change vs veh, CDK5R1 / RFU, ZRANB3 / Fold change vs veh, ZRANB3 / RFU, CUL4A / Fold change vs veh, CUL4A / RFU, CCNY / Fold change vs veh, CCNY / RFU, UFL1 / Fold change vs veh, UFL1 / RFU, COG3 / Fold change vs veh, COG3 / RFU, DIAPH2 / Fold change vs veh, DIAPH2 / RFU, SKA2 / Fold change vs veh, SKA2 / RFU, AFF3 / Fold change vs veh, AFF3 / RFU, LMF1 / Fold change vs veh, LMF1 / RFU, IPO11 / Fold change vs veh, IPO11 / RFU, DFFB / Fold change vs veh, DFFB / RFU, FOXP1 / Fold change vs veh, FOXP1 / RFU, CARD8 / Fold change vs veh, CARD8 / RFU, STRN3 / Fold change vs veh, STRN3 / RFU, ADK / Fold change vs veh, ADK / RFU, RASSF2 / Fold change vs veh, RASSF2 / RFU, WIPF1 / Fold change vs veh, WIPF1 / RFU, LARP1B / Fold change vs veh, LARP1B / RFU, RASA1 / Fold change vs veh, RASA1 / RFU, RB1 / Fold change vs veh, RB1 / RFU, PPFIA1 / Fold change vs veh, PPFIA1 / RFU, MAT2A / Fold change vs veh, MAT2A / RFU, CCT5 / Fold change vs veh, CCT5 / RFU, WDR92 / Fold change vs veh, WDR92 / RFU, CUX1 / Fold change vs veh, CUX1 / RFU, TTC7A / Fold change vs veh, TTC7A / RFU, TMEM135 / Fold change vs veh, TMEM135 / RFU, DEPTOR / Fold change vs veh, DEPTOR / RFU, CPM / Fold change vs veh, CPM / RFU, DNAJB6 / Fold change vs veh, DNAJB6 / RFU, CACNA2D3 / Fold change vs veh, CACNA2D3 / RFU, DTX4 / Fold change vs veh, DTX4 / RFU, TFCP2 / Fold change vs veh, TFCP2 / RFU, GMCL1 /// GMCL1P1 / Fold change vs veh, GMCL1 /// GMCL1P1 / RFU, AEBP2 / Fold change vs veh, AEBP2 / RFU, SNHG1 /// SNORD22 /// SNORD25 /// SNORD26 /// SNORD27 /// SNORD28 /// SNORD29 /// SNORD31 / Fold change vs veh, SNHG1 /// SNORD22 /// SNORD25 /// SNORD26 /// SNORD27 /// SNORD28 /// SNORD29 /// SNORD31 / Fold change (Aza/veh), C12orf56 (ProbeSet 11735607_a_at) / Fold change (ACY-1035/veh), C12orf56 (ProbeSet 11735607_a_at) / Fold change (Aza/veh), FGFR1OP (ProbeSet 11751329_s_at) / Fold change (ACY-1035/veh), FGFR1OP (ProbeSet 11751329_s_at) / Fold change (Aza/veh), VPS36 (ProbeSet 11739960_a_at) / Fold change (ACY-1035/veh), VPS36 (ProbeSet 11739960_a_at) / RFU SYPL1 (11715823_x_at) / Fold change /veh SYPL1 (11715823_x_at) / RFU IGFBP7 (11715501_s_at) / Fold change /veh IGFBP7 (11715501_s_at) / RFU REEP3 (11722064_at) / Fold change /veh REEP3 (11722064_at) / RFU IGLL1 (11728026_x_at) / Fold change /veh IGLL1 (11728026_x_at): dose or concentration left out as unconfirmed. As to conditions: MV-4-11 cells, 48 hours.

As to `Nc1ccc(-c2cccs2)cc1NC(=O)c1ccc2c(c1)cc(C1CC1)n2CCN1CCOCC1` [ACY-1035], the “RFU PRF1 (11729649_at)” value came out at 18.67 RFU.
